Assays:
epidermal cells = conditions: pyramidal CMC-microneedle array, 5 mg/g of CMC, arrays removed after 5 minutes, 72 hours of exposure
Experimental: Cytoxan® was integrated at a concentration of 5 mg/g of CMC, enabling delivery of approximately about 140 μg per array. This is a therapeutically relevant concentration based on the area of skin targeted, yet well below levels associated with systemic toxicities. Living human skin organ cultures were used to assess the cytotoxicty of Cytoxan®. Cytoxan® was delivered by application of arrays to skin explants as we previously described. Arrays and residual material were removed 5 minutes after application, and after 72 hours of exposure, culture living skin explants were cryo-sectioned and fixed. Apoptosis was evaluated using green fluorescent TUNEL assay (In Situ Cell Death Detection Kit, TMR […], Roche, cat #:11-684-795-910).

human skin = assay: Apoptosis in human skin at the chosen MNA doxorubicin dose; conditions: MNA dose chosen for the tumor study
B16 melanoma = assay: Treatment of established B16 skin tumors with MNAs; conditions: MNAs once weekly for three weeks; for survival: combination: long term survival through day 70
Experimental: B16 skin tumors were established in normal mice by injection. Visible established cutaneous tumors were treated once weekly for three weeks with MNAs containing either doxorubicin alone, Poly(I:C) alone, or doxorubicin and Poly(I:C) incorporated into the same MNA. […] Tumor growth and survival were measured regularly for the duration of the study.

Compound	apoptosis (TUNEL) (epidermal cells)	apoptosis and necrosis in human skin (human skin)	tumor growth (B16 melanoma)	survival (B16 melanoma) [%]
O=P1(N(CCCl)CCCl)NCCCO1 (stereo not drawn) [Cytoxan®, cyclophosphamide]	extensive apoptosis of epidermal cells			
COc1cccc2c1C(=O)c1c(O)c3c(c(O)c1C2=O)C[C@@](O)(C(=O)CO)C[C@@H]3O[C@H]1C[C@H](N)[C@H](O)[C@H](C)O1 [doxorubicin]		induces apoptosis in human skin without causing necrosis	slowed tumor growth	30
Poly(I:C)			slowed tumor growth	50
